# Patent publication US20240382629A1, “HETEROBIVALENT AND HOMOBIVALENT AGENTS TARGETING FIBROBLAST ACTIVATION PROTEIN ALPHA AND/OR PROSTATE-SPECIFIC MEMBRANE ANTIGEN” (The Johns Hopkins University, priority 2021, published 2024)
# Where “and” joins values, the source holds several entries; their conditions need not be identical. Equal entries are not always repeated.
# Experiment: Biodistribution of [^18F]JHU1221823 with cold FAPI-04 blocker
# Assay type: in vivo, mouse
# Conditions: for % ID/g Bladder / % ID/g Blood / % ID/g Brain / % ID/g Fat / % ID/g Femur / % ID/g Heart / % ID/g Kidney / % ID/g Large intestine / % ID/g Liver / % ID/g Lung / % ID/g Muscle / % ID/g Pancreas / % ID/g Salivary gland / % ID/g Small intestine / % ID/g Spleen / % ID/g Stomach / % ID/g Tumor: single mouse
smiles,measurement,setting,value
N#C[C@@H]1CCCN1C(=O)CNC(=O)c1ccnc2ccc(OCCCNC(=O)CCOCCOCCOCCOCCNC(=O)[C@H](CCCCNC(=O)c3ccc([18F])nc3)NC(=O)CN3CCN(CC(=O)O)CCN(CC(=O)O)CCN(CC(=O)O)CC3)cc12 [[^18F]JHU1221823],% ID/g Mean Bladder,30 min,2.49 % ID/g
same,% ID/g Bladder,30 min,1.53 % ID/g and 3.45 % ID/g
same,% ID/g Mean Bladder,60 min,5.51 % ID/g
same,% ID/g Bladder,60 min,3.64 % ID/g and 7.58 % ID/g
same,% ID/g Mean Bladder,"+ Blocker Cold FAPI-04, 60 min",2.33 % ID/g
same,% ID/g Bladder,"+ Blocker Cold FAPI-04, 60 min",2.62 % ID/g and 2.04 % ID/g
same,% ID/g Mean Blood,30 min,10.81 % ID/g
same,% ID/g Blood,30 min,11.89 % ID/g and 9.72 % ID/g
same,% ID/g Mean Blood,60 min,10.03 % ID/g
same,% ID/g Blood,60 min,9.50 % ID/g and 10.76 % ID/g
same,% ID/g Mean Blood,"+ Blocker Cold FAPI-04, 60 min",0.25 % ID/g
same,% ID/g Blood,"+ Blocker Cold FAPI-04, 60 min",0.22 % ID/g and 0.28 % ID/g
same,% ID/g Mean Brain,30 min,0.29 % ID/g
same,% ID/g Brain,30 min,0.26 % ID/g and 0.31 % ID/g
same,% ID/g Mean Brain,60 min,0.45 % ID/g
same,% ID/g Brain,60 min,0.40 % ID/g and 0.50 % ID/g
same,% ID/g Mean Brain,"+ Blocker Cold FAPI-04, 60 min",0.09 % ID/g
same,% ID/g Brain,"+ Blocker Cold FAPI-04, 60 min",0.06 % ID/g and 0.11 % ID/g
same,% ID/g Mean Fat,30 min,0.42 % ID/g
same,% ID/g Fat,30 min,0.41 % ID/g and 0.43 % ID/g
same,% ID/g Mean Fat,60 min,0.56 % ID/g
same,% ID/g Fat,60 min,0.53 % ID/g and 0.58 % ID/g
same,% ID/g Mean Fat,"+ Blocker Cold FAPI-04, 60 min",0.21 % ID/g
same,% ID/g Fat,"+ Blocker Cold FAPI-04, 60 min",0.15 % ID/g and 0.27 % ID/g
same,% ID/g Mean Femur,30 min,3.50 % ID/g
same,% ID/g Femur,30 min,3.95 % ID/g and 3.45 % ID/g
same,% ID/g Mean Femur,60 min,3.54 % ID/g
same,% ID/g Femur,60 min,3.21 % ID/g and 3.87 % ID/g
same,% ID/g Mean Femur,"+ Blocker Cold FAPI-04, 60 min",1.78 % ID/g
same,% ID/g Femur,"+ Blocker Cold FAPI-04, 60 min",0.98 % ID/g and 2.58 % ID/g
same,% ID/g Mean Heart,30 min,5.01 % ID/g
same,% ID/g Heart,30 min,5.25 % ID/g and 4.76 % ID/g
same,% ID/g Mean Heart,60 min,4.52 % ID/g
same,% ID/g Heart,60 min,4.67 % ID/g and 4.58 % ID/g
same,% ID/g Mean Heart,"+ Blocker Cold FAPI-04, 60 min",0.28 % ID/g
same,% ID/g Heart,"+ Blocker Cold FAPI-04, 60 min",0.22 % ID/g and 0.33 % ID/g
same,% ID/g Mean Kidney,30 min,3.17 % ID/g
same,% ID/g Kidney,30 min,3.37 % ID/g and 2.96 % ID/g
same,% ID/g Mean Kidney,60 min,2.75 % ID/g
same,% ID/g Kidney,60 min,2.76 % ID/g and 2.75 % ID/g
same,% ID/g Mean Kidney,"+ Blocker Cold FAPI-04, 60 min",1.77 % ID/g
same,% ID/g Kidney,"+ Blocker Cold FAPI-04, 60 min",1.85 % ID/g and 1.69 % ID/g
same,% ID/g Mean Large intestine,30 min,2.14 % ID/g
same,% ID/g Large intestine,30 min,1.61 % ID/g and 2.67 % ID/g
same,% ID/g Mean Large intestine,60 min,5.58 % ID/g
same,% ID/g Large intestine,60 min,1.70 % ID/g and 5.45 % ID/g
same,% ID/g Mean Large intestine,"+ Blocker Cold FAPI-04, 60 min",0.47 % ID/g
same,% ID/g Large intestine,"+ Blocker Cold FAPI-04, 60 min",0.41 % ID/g and 0.52 % ID/g
same,% ID/g Mean Liver,30 min,2.44 % ID/g
same,% ID/g Liver,30 min,2.58 % ID/g and 2.30 % ID/g
same,% ID/g Mean Liver,60 min,2.62 % ID/g
same,% ID/g Liver,60 min,2.49 % ID/g and 2.75 % ID/g
same,% ID/g Mean Liver,"+ Blocker Cold FAPI-04, 60 min",0.44 % ID/g
same,% ID/g Liver,"+ Blocker Cold FAPI-04, 60 min",0.35 % ID/g and 0.51 % ID/g
same,% ID/g Mean Lung,30 min,6.38 % ID/g
same,% ID/g Lung,30 min,6.92 % ID/g and 5.83 % ID/g
same,% ID/g Mean Lung,60 min,6.05 % ID/g
same,% ID/g Lung,60 min,5.36 % ID/g and 6.75 % ID/g
same,% ID/g Mean Lung,"+ Blocker Cold FAPI-04, 60 min",0.72 % ID/g
same,% ID/g Lung,"+ Blocker Cold FAPI-04, 60 min",0.54 % ID/g and 0.89 % ID/g
same,% ID/g Mean Muscle,30 min,1.73 % ID/g
same,% ID/g Muscle,30 min,1.74 % ID/g and 1.71 % ID/g
same,% ID/g Mean Muscle,60 min,1.75 % ID/g
same,% ID/g Muscle,60 min,1.76 % ID/g and 1.75 % ID/g
same,% ID/g Mean Muscle,"+ Blocker Cold FAPI-04, 60 min",0.48 % ID/g
same,% ID/g Muscle,"+ Blocker Cold FAPI-04, 60 min",0.25 % ID/g and 0.61 % ID/g
same,% ID/g Mean Pancreas,30 min,3.13 % ID/g
same,% ID/g Pancreas,30 min,3.58 % ID/g and 2.88 % ID/g
same,% ID/g Mean Pancreas,60 min,3.70 % ID/g
same,% ID/g Pancreas,60 min,5.44 % ID/g and 3.95 % ID/g
same,% ID/g Mean Pancreas,"+ Blocker Cold FAPI-04, 60 min",0.37 % ID/g
same,% ID/g Pancreas,"+ Blocker Cold FAPI-04, 60 min",0.27 % ID/g and 0.46 % ID/g
same,% ID/g Mean Salivary gland,30 min,8.51 % ID/g
same,% ID/g Salivary gland,30 min,7.35 % ID/g and 9.57 % ID/g
same,% ID/g Mean Salivary gland,60 min,8.97 % ID/g
same,% ID/g Salivary gland,60 min,9.14 % ID/g and 8.79 % ID/g
same,% ID/g Mean Salivary gland,"+ Blocker Cold FAPI-04, 60 min",0.42 % ID/g
same,% ID/g Salivary gland,"+ Blocker Cold FAPI-04, 60 min",0.37 % ID/g and 0.48 % ID/g
same,% ID/g Mean Small intestine,30 min,2.78 % ID/g
same,% ID/g Small intestine,30 min,3.08 % ID/g and 2.48 % ID/g
same,% ID/g Mean Small intestine,60 min,5.18 % ID/g
same,% ID/g Small intestine,60 min,8.18 % ID/g and 3.18 % ID/g
same,% ID/g Mean Small intestine,"+ Blocker Cold FAPI-04, 60 min",0.99 % ID/g
same,% ID/g Small intestine,"+ Blocker Cold FAPI-04, 60 min",0.91 % ID/g and 1.06 % ID/g
same,% ID/g Mean Spleen,30 min,2.08 % ID/g
same,% ID/g Spleen,30 min,2.08 % ID/g and 2.12 % ID/g
same,% ID/g Mean Spleen,60 min,2.35 % ID/g
same,% ID/g Spleen,60 min,2.25 % ID/g and 2.45 % ID/g
same,% ID/g Mean Spleen,"+ Blocker Cold FAPI-04, 60 min",0.51 % ID/g
same,% ID/g Spleen,"+ Blocker Cold FAPI-04, 60 min",0.29 % ID/g and 0.38 % ID/g
same,% ID/g Mean Stomach,30 min,1.52 % ID/g
same,% ID/g Stomach,30 min,1.84 % ID/g and 1.21 % ID/g
same,% ID/g Mean Stomach,60 min,1.68 % ID/g
same,% ID/g Stomach,60 min,1.68 % ID/g and 1.57 % ID/g
same,% ID/g Mean Stomach,"+ Blocker Cold FAPI-04, 60 min",0.34 % ID/g
same,% ID/g Stomach,"+ Blocker Cold FAPI-04, 60 min",0.28 % ID/g and 0.40 % ID/g
same,% ID/g Mean Tumor,30 min,3.11 % ID/g
same,% ID/g Tumor,30 min,2.90 % ID/g and 3.32 % ID/g
same,% ID/g Mean Tumor,60 min,6.20 % ID/g
same,% ID/g Tumor,60 min,5.22 % ID/g and 7.17 % ID/g
same,% ID/g Mean Tumor,"+ Blocker Cold FAPI-04, 60 min",1.04 % ID/g
same,% ID/g Tumor,"+ Blocker Cold FAPI-04, 60 min",0.89 % ID/g and 1.19 % ID/g
